{"source": "patent US10662194B2", "about": "“Substituted 6-anilino-9-heterocyclylpurine derivatives for inhibition of plant stress” (UNIVERZITA PALACKEHO V OLOMOUCI, priority 2014, dated 2020)", "key": {"recombinant AtCKX2": {"target": "T1, recombinant AtCKX2 (Arabidopsis thaliana, UniProt Q9FUJ3)", "T1 construct": "made in house; host or cells: S. cerevisiae strain 23344c ura-", "T1 sequence (Q9FUJ3 23-501)": "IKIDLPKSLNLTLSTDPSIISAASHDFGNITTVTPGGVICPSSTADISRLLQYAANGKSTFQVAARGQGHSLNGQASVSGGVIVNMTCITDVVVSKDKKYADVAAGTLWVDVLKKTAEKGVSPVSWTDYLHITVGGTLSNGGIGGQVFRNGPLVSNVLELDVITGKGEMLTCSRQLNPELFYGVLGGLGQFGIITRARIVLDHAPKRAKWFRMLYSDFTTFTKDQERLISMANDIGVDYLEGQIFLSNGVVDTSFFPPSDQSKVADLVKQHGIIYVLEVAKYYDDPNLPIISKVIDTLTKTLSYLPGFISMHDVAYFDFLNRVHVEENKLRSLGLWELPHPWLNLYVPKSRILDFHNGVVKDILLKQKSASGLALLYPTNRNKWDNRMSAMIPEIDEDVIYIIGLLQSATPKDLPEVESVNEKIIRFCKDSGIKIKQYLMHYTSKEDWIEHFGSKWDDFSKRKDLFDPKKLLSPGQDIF", "assay": "Inhibition of cytokinin oxidase/dehydrogenase activity (PMS/MTT microtitre assay)", "assay_type": "biochemical", "method": "IC50 measurements were done using the assay in microtitre plate. Each well contained 100 μL of PMS/MTT [phenazine methosulfate/3-(4,5-dimethylthiazol-2-yl)-2,5-diphenyltetrazolium bromide] reaction mixture (final concentrations: 0.1 M KH2PO4, pH 7.4, 1 mM MTT, 0.2 mM PMS) containing the tested compound (3×10^−7 M-3×10^−4 M) and 30 μM N^6-isopentenyladenine (iP) as a substrate. 100 μL of cell-free growth medium of S. cerevisiae strain 23344c ura^− harboring the plasmid pYES2-AtCKX2 was directly used as a source of AtCKX2. Plates were incubated in the dark for 30 min at 37° C. and the enzymatic reaction was stopped by 25 μL of 35% acetic acid. The absorbance at 578 nm was measured using spectrophotometer Tecan. Absorbance of the sample without iP was subtracted.\nThe IC50 value, the compound concentration that inhibits the enzyme activity to 50%, was calculated from the obtained dose response curves. The values shown in Table 7 are means of three replicates and the entire test was repeated at least twice. […] Compound 12 is an effective inhibitor of AtCKX2 activity, app. 3-times stronger that thidiazuron and only app. 3-times weaker than the structurally related compound INCYDE (2-chloro-6-(3-methoxyanilino)purine)."}, "[1]": {"assay": "Calcein AM viability/cytotoxicity assay, BJ", "assay_type": "cell-based", "details": "human, BJ foreskin fibroblasts, FIG. 11, read-out: IC50, concentration reducing number of viable cells to 50%", "text": "Absence of toxic effects against mammalian (especially human) cell lines in a wide concentration range is one of the requirements on compounds intended for use in agriculture and medicine. Because toxic compounds negatively influence metabolic processes in cells, many standard cytotoxicity assays are based on measurement of metabolisation rate of various artificial substrates. Resulting product is then quantified e.g. by means of spectrometry. The assays can be easily modified for use in 96-well plates. For evaluation of cytotoxic effect of compounds of this invention, a microtiter assay based on quantification of metabolisation of Calcein AM was used. The assay is widely used in drug screening programs and in chemosensitivity testing. In live cells, Calcein AM is enzymatically hydrolysed and accumulation of resulting calcein is manifested by green fluorescence. The cytotoxicity of the studied compounds was determined with human fibroblast lines MRC-5 (lung fibroblasts) and BJ (foreskin fibroblasts). […] The fluorescence of the live cells was measured at 485 nm/538 nm (excitation/emission) with a Fluoroskan Ascent microplate reader (Labsystems). […]"}, "human U2OS cells": {"system": "human U2OS cells", "assay": "Induction of DNA breakage, γ-H2AX immunofluorescence", "assay_type": "cell-based", "details": "100 μM, 24 h, FIG. 13", "text": "Maintenance of genome integrity is essential for homeostasis and survival as impaired DNA damage response may predispose to grave pathologies such as neurodegenerative and immunodeficiency syndromes, cancer and premature aging (Mistrik et al., 2009). The potential effect of compound 12 on stimulation of DNA breakage was thus further estimated through analysis of phosphorylated histone H2AX (gamma-H2AX) quantified by optimized automated single-cell image analysis (Mistrik et al., 2009). The compound 12 was tested in concentration of 100 μM, the highest concentration accessible due to the compound solubility. Induction of DNA breakage was tested using human U2OS cells. The U2OS cells were cultivated at standard cultivation condition (37° C., 5% CO2). As a positive control, cells were irradiated by roentgen radiation (Baltobloc) (0.5 Gy-2 Gy), one hour later fixed and stained for γ-H2AX, a well established marker of the DNA damage. Parallel samples were treated by compound 12 for 24 hours, fixed and also stained for γ-H2AX. Microscopy analysis followed by computer based signal quantification was performed as described previously (Mistrik et al., 2009)."}}}
{"smiles": "COc1cccc(Nc2nc(Cl)nc3c2ncn3C2CCCCO2)c1", "note": "(centres unmarked) [compound 12, 2-chloro-6-(3-methoxyanilino)-9-(tetrahydropyran-2-yl)purine]", "values": [{"measurement": "AtCKX2 inhibition, times stronger than thidiazuron", "setting": "recombinant AtCKX2", "value": "~3", "unit": "times"}, {"measurement": "AtCKX2 inhibition, times weaker than INCYDE", "setting": "recombinant AtCKX2", "value": "~3", "unit": "times"}, {"measurement": "IC50", "setting": "recombinant AtCKX2; 30 μM iP substrate, 30 min, 37° C., read-out: IC50", "value": 19.5, "unit": "µM"}, {"measurement": "IC50 at 72 h", "setting": "[1]", "value": "> 100", "unit": "µM"}, {"measurement": "DNA damage (γ-H2AX)", "setting": "human U2OS cells", "value": "no effect on DNA damage"}]}
